The values that follow come from patent US20260035339A1, “TETRAHYDRONAPHTHALENE DERIVATIVE” (ATRANSEN PHARMA LTD., priority 2022, published 2026).

Bounds are passed on as bounds.

The target in one experiment is human LAT1 (Homo sapiens, UniProt Q01650). The experiment in a line: [14C]L-leucine uptake inhibition test using human-LAT1 stably expressing HEK293 cell line. Type of experiment: cell-based. Set-up: having full-length cDNA of human LAT1 or LAT2 inserted under a promoter of CMV; expressed in transfected cells; key to Assay Data: degree of [14C]L-leucine uptake inhibition compared with BCH: a test compound having a higher inhibitory effect than BCH is denoted by A; a test compound having the same inhibitory effect as BCH is denoted by B; a test compound having a lower inhibitory effect than BCH is denoted by C. The note with it: for Assay Data: degree of [14C]L-leucine uptake inhibition compared with BCH: compound (racemic form) and BCH at 0.1, 1.0, 10 μM, 1 μM [14C]L-leucine, 1 minute, Na+-free HBSS. The text has this:
HEK293 cells stably expressing human LAT1 and LAT2 were produced, respectively.
A shuttle vector DNA (LAT1: pcDNA3.1(+) -hLAT1, LAT2: pcDNA3.1(+) -hLAT2; expression vector pcDNA3.1 (+) was produced by Invitrogen Corp.) having ampicillin and neomycin resistance markers and having full-length cDNA of human LAT1 or LAT2 inserted under a promoter of CMV (cytomegalovirus) was constructed. This vector was transfected into the HEK293 cells by a method using Lipofectamine (registered trademark) 2000 (Invitrogen Corp.) according to the manufacturer's instructions. Thereafter, stably expressing cell clones of transgene were selected by a limiting dilution method in the presence of 0.9 mg/mL of Geneticin (registered trademark), and among the obtained cell clones, cell clones having a high uptake of [^14C]L-leucine and maintaining stable expression even after 10 passages were obtained. These cells were used for evaluating affinity and selectivity for LAT1 and LAT2.
1-1. It has been confirmed that LAT1 is responsible for L-leucine uptake in the absence of sodium ions in the human-LAT1 stably expressing HEK293 cell line. The human-LAT1 stably expressing HEK293 cell line was seeded in a 24-well plate at 1×10^5 Cell/Well, and the [^14C]L-leucine uptake inhibition test using the compound was performed after 48 hours. After the medium was removed and the cells were washed with Hank's balanced salt solution (Na^+-free HBSS) not containing sodium ions, the cells were cultured in Na^+-free HBSS for 10 minutes. Thereafter, 1 μM of [^14C]L-leucine was taken up in Na^+-free HBSS in the presence of a test compound (0.1, 1.0, 10, 0 μM in each case), which is a racemic form, for 1 minute, and then the cells were washed three times with ice-cooled Na^+-free HBSS. To the well, 500 μL of 1 M NaOH was added, and after 30 minutes, the cells were lysed, and the cell lysate was collected. The amount of [^14C]L-leucine in the cell lysate was determined using a liquid scintillator. The amount of protein in the cell lysate was measured using BCA Assay Kit (Thermofisher Scientific), and the uptake amount of [^14C]L-leucine per 1 mg of protein in the cell per minute was calculated.
The degree of LAT1 inhibition of the compound obtained in the present invention was compared with BCH (BCH, 2-aminobicyclo-(2,2,1)-heptane-2-carboxylic acid), which is an existing LAT1 inhibitor. In the [^14C]L-leucine uptake inhibition test described above, the degrees of inhibition of [^14C]L-leucine uptake inhibition using the compound (racemic form) obtained in Examples and BCH (0.1, 1.0, 10, 0 μM for both) were compared. […] In the table, a test compound having a higher inhibitory effect than BCH is denoted by A, a test compound having the same inhibitory effect as BCH is denoted by B, and a test compound having a lower inhibitory effect than BCH is denoted by C.

In experiment [1] the test system is Mouse colorectal cancer-derived CT26 cells. Description: Cell proliferation inhibitory effect using mouse colorectal cancer cells (CCK-8 assay). Format: cell-based. The note with it: 72 hours compound treatment, read-out: Evaluation of IC50 (proliferation inhibition rate of 50%). As to the method: Mouse colorectal cancer-derived CT26 cells were adjusted to […], seeded in a 96-well plate at 1000 cells/well, and cultured in a 10% fetal bovine serum-added RPMI 1640 medium at 5% CO2 and 37° C. The culture medium was changed 24 hours after the start of the culture, and the medium containing the compound of Example was replaced to examine the action of the compound on cell proliferation. As the compound, a concentration of 0.01, 0.03, 0.1, 0.3, 1, 3, 10, or 30 μM was used. As a control, the cells were cultured in a medium containing no compound. The number of cells was evaluated by CCK-8 assay (Cell Counting Kit-8, DOJINDO LABORATORIES) 72 hours after the start of the compound treatment, and the compound concentration (IC50 value) giving a proliferation inhibition rate of 50% as compared with the control was calculated.

Chain of human LAT1 (Q01650 whole entry): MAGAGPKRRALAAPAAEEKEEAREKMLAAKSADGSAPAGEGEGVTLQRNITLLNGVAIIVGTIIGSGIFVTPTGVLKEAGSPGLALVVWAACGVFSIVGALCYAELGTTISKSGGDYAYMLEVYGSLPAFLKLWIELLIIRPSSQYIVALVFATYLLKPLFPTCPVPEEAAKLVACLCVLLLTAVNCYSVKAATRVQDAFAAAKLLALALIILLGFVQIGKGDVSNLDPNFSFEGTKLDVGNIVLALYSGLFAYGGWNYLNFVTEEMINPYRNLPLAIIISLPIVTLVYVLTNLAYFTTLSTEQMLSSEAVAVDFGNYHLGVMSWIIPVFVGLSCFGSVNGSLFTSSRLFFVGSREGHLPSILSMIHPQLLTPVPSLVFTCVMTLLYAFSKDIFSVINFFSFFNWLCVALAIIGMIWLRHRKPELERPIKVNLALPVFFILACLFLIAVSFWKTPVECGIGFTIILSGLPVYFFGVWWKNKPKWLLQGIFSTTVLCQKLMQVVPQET
Chain of human LAT1 (P08195 102-630 partner): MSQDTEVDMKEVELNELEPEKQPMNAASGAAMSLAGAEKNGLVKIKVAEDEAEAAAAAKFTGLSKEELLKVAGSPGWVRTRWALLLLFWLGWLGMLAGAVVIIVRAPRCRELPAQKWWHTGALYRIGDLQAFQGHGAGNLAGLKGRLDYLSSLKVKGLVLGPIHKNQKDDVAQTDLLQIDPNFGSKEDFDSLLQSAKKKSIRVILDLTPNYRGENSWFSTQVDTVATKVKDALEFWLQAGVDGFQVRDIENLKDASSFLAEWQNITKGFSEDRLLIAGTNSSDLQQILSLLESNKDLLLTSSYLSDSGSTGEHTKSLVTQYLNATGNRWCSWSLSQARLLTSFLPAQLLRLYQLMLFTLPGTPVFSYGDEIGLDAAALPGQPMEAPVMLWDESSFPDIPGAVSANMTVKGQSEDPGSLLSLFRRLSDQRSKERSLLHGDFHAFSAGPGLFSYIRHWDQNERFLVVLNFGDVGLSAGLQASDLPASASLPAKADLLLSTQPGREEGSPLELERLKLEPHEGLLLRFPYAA

On to `CN(C)c1ccc2ccc(Oc3ccc4c(c3)CC(N)(C(=O)O)CC4)cc2c1` (centres unmarked) [Example 1-7, 2-amino-7-((7-(dimethylamino)naphthalene-2-yl)oxy)-1,2,3,4-tetrahydronaphthalene-2-carboxylic acid], for which the “Assay Data: degree of [14C]L-leucine uptake inhibition compared with BCH” value at human LAT1 is on record as “A”.

`Cl.NC1(C(=O)O)CCc2ccc(Oc3cccc(-c4ccc5ccccc5c4)c3)cc2C1` (centres unmarked) [Example 1-13, 2-carboxy-7-(3-(naphthalene-2-yl)phenoxy)-1,2,3,4-tetrahydronaphthalene-2-aminium chloride]: the “Assay Data: degree of [14C]L-leucine uptake inhibition compared with BCH” value on human LAT1 is “A”.

On to `Cl.NC1(C(=O)O)CCc2ccc(Oc3cccc4cccc(-c5ccccc5)c34)cc2C1` (centres unmarked) [Example 1-61, 2-carboxy-7-((8-phenylnaphthalen-1-yl)oxy)-1,2,3,4-tetrahydronaphthalen-2-aminium chloride], for which the IC50 in experiment [1] is at most 900 nM. The “Assay Data: degree of [14C]L-leucine uptake inhibition compared with BCH” value at human LAT1 is “A”.

Regarding `CN(C)c1ccc2cc(Oc3ccc4c(c3)CC(N)(C(=O)O)CC4)ccc2c1` (centres unmarked) [Example 1-6, 2-amino-7-((6-(dimethylamino)naphthalene-2-yl)oxy)-1,2,3,4-tetrahydronaphthalene-2-carboxylic acid], the “Assay Data: degree of [14C]L-leucine uptake inhibition compared with BCH” value at human LAT1 was “A”.

Consider `NC1(C(=O)O)CC2CCC1C2` (centres unmarked) [BCH, 2-aminobicyclo-(2,2,1)-heptane-2-carboxylic acid, reference compound], for which, at human LAT1 (0.1 to 10 μM), the “[14C]L-leucine uptake inhibition via LAT1 (in words)” value is reported as “weak”.

With `COc1cccc2cccc(Oc3ccc4c(c3)CC(N)(C(=O)O)CC4)c12.Cl` (centres unmarked) [Example 1-60, 2-carboxy-7-((8-methoxynaphthalen-1-yl)oxy)-1,2,3,4-tetrahydronaphthalen-2-aminium chloride], the IC50 in experiment [1] was at most 900 nM. Besides, the “Assay Data: degree of [14C]L-leucine uptake inhibition compared with BCH” value at human LAT1 is listed as “A”.

Consider `Cl.NC1(C(=O)O)CCc2ccc(Oc3cccc(-c4ccccc4)c3)cc2C1` (centres unmarked) [Example 1-2, 7-([1,1′-biphenyl]-3-yloxy)-2-carboxy-1,2,3,4-tetrahydronaphthalene-2-aminium chloride], for which the “Assay Data: degree of [14C]L-leucine uptake inhibition compared with BCH” value on human LAT1 is “A”.

For the compound `NC1(C(=O)O)CCc2ccc(Oc3cccc(-c4ccccn4)c3)cc2C1` (centres unmarked) [Example 1-9, 2-amino-7-(3-(pyridine-2-yl)phenoxy)-1,2,3,4-tetrahydronaphthalene-2-carboxylic acid], on human LAT1, the “Assay Data: degree of [14C]L-leucine uptake inhibition compared with BCH” value is given as “A”.

On to `Cl.NC1(C(=O)O)CCc2ccc(Oc3ccccc3-c3c(F)c(F)c(F)c(F)c3F)cc2C1` (centres unmarked) [Example 1-64, 2-carboxy-7-((2′,3′,4′,5′,6′-pentafluoro-[1,1′-biphenyl]-2-yl)oxy)-1,2,3,4-tetrahydronaphthalene-2-aminium chloride], for which the IC50 in experiment [1] was at most 900 nM. The “Assay Data: degree of [14C]L-leucine uptake inhibition compared with BCH” value at human LAT1 was “A”.

As to `Cl.NC1(C(=O)O)CCc2ccc(Oc3ccccc3-c3ccc(F)c(F)c3)cc2C1` (centres unmarked) [Example 1-56, 2-carboxy-7-((3′,4′-Difluoro-[1,1′-Biphenyl]-2-yl)oxy)-1,2,3,4-tetrahydronaphthalene-2-aminium chloride], in experiment [1], the IC50 is at most 900 nM. The “Assay Data: degree of [14C]L-leucine uptake inhibition compared with BCH” value at human LAT1 is given as “A”.

Consider `Cl.NC1(C(=O)O)CCc2cc(Oc3ccc4ccccc4c3)ccc2C1` (centres unmarked) [Example 2-1, 2-carboxy-6-(naphthalene-2-yloxy)-1,2,3,4-tetrahydronaphthalene-2-aminium chloride], for which the “Assay Data: degree of [14C]L-leucine uptake inhibition compared with BCH” value at human LAT1 is reported as “A”.

In the case of `Cl.NC1(C(=O)O)CCc2ccc(Oc3ccc4occc4c3)cc2C1` (centres unmarked) [Example 1-3, 7-(benzofuran-5-yloxy)-2-carboxy-1,2,3,4-tetrahydronaphthalene-2-aminium chloride], the “Assay Data: degree of [14C]L-leucine uptake inhibition compared with BCH” value at human LAT1 is listed as “A”.

As for `Cl.Cl.NC1(C(=O)O)CCc2ccc(Oc3ccccc3-c3ccccn3)cc2C1` (centres unmarked) [Example 1-32, 2-(2-((7-ammonio-7-carboxy-5,6,7,8-tetrahydronaphthalen-2-yl)oxy)phenyl) pyridin-1-ium chloride], in experiment [1], the IC50 lay in the range of 900 to 5000 nM. Besides, the “Assay Data: degree of [14C]L-leucine uptake inhibition compared with BCH” value at human LAT1 is recorded as “A”.

On to `Cl.NC1(C(=O)O)CCc2ccc(Oc3cccc(-c4ccc(Cl)cc4)c3)cc2C1` (centres unmarked) [Example 1-10, 2-carboxy-7-((4′-chloro-[1,1′-biphenyl]-3-yl)oxy)-1,2,3,4-tetrahydronaphthalene-2-aminium chloride], for which the “Assay Data: degree of [14C]L-leucine uptake inhibition compared with BCH” value on human LAT1 is “A”.

With `Cl.NC1(C(=O)O)CCc2ccc(Oc3ccc([N+](=O)[O-])cc3-c3cccc4ccccc34)cc2C1` (centres unmarked) [Example 1-69, 2-Carboxy-7-(2-(naphthalen-1-yl)-4-nitrophenoxy)-1,2,3,4-tetrahydronaphthalene-2-aminium chloride], in experiment [1], the IC50 is at most 900 nM. The “Assay Data: degree of [14C]L-leucine uptake inhibition compared with BCH” value on human LAT1 is “A”.

Turning to `NC1(C(=O)O)CCc2cc(Oc3ccc(-c4cccnc4)cc3)ccc2C1` (centres unmarked) [Example 2-2, 3-(4-((6-ammonio-6-carboxy-5,6,7,8-tetrahydronaphthalene-2-yl)oxy)phenyl) pyridine-1-ium chloride], the “Assay Data: degree of [14C]L-leucine uptake inhibition compared with BCH” value at human LAT1 was “B”.

`Cl.NC1(C(=O)O)CCc2ccc(Oc3ccccc3-c3ccccc3)cc2C1` (centres unmarked) [Example 1-16, 7-([1,1′-biphenyl]-2-yloxy)-2-carboxy-1,2,3,4-tetrahydronaphthalene-2-aminium chloride]: the IC50 in experiment [1] is at most 900 nM. In addition, the “Assay Data: degree of [14C]L-leucine uptake inhibition compared with BCH” value at human LAT1 is on record as “A”.

Regarding `COc1ccc2ccc(Oc3ccc4c(c3)CC(N)(C(=O)O)CC4)cc2c1.Cl` (centres unmarked) [Example 1-5, 2-carboxy-7-((7-methoxynaphthalene-2-yl)oxy)-1,2,3,4-tetrahydronaphthalene-2-aminium chloride], the “Assay Data: degree of [14C]L-leucine uptake inhibition compared with BCH” value at human LAT1 is on record as “A”.

As to `Cl.NC1(C(=O)O)CCc2ccc(Oc3cccc4ccccc34)cc2C1` (centres unmarked) [Example 1-4, 2-carboxy-7-(naphthalene-1-yloxy)-1,2,3,4-tetrahydronaphthalene-2-aminium chloride], the IC50 in experiment [1] was at most 900 nM. Also, on human LAT1, the “Assay Data: degree of [14C]L-leucine uptake inhibition compared with BCH” value is recorded as “A”. Besides, on human LAT1 (same test as Table 1), the “LAT1 inhibitory effect, compounds singled out (in words)” value is listed as “particularly remarkable effects”.

On to `Cl.NC1(C(=O)O)CCc2ccc(Oc3ccc(-c4ccccc4)cc3)cc2C1` (centres unmarked) [Example 1-12, 7-([1,1′-biphenyl]-4-yloxy)-2-carboxy-1,2,3,4-tetrahydronaphthalene-2-aminium chloride], for which the “Assay Data: degree of [14C]L-leucine uptake inhibition compared with BCH” value on human LAT1 was “A”.

In the case of `NC1(C(=O)O)CCc2ccc(Oc3ccc([N+](=O)[O-])cc3)cc2C1` (centres unmarked) [Example 1-68, 2-carboxy-7-(4-nitrophenoxy)-1,2,3,4-tetrahydronaphthalene-2-aminium chloride], in experiment [1], the IC50 lay within 900 to 5000 nM.

Regarding `Cl.NC1(C(=O)O)CCc2ccc(Oc3cccc(-c4cccc(Cl)c4)c3)cc2C1` (centres unmarked) [Example 1-11, 2-carboxy-7-((3′-chloro-[1,1′-biphenyl]-3-yl)oxy)-1,2,3,4-tetrahydronaphthalene-2-aminium chloride], at human LAT1, the “Assay Data: degree of [14C]L-leucine uptake inhibition compared with BCH” value is on record as “A”.

For the compound `NC1(C(=O)O)CCc2ccc(Oc3ccc4ncccc4c3)cc2C1` (centres unmarked) [Example 1-8, 2-amino-7-(quinoline-6-yloxy)-1,2,3,4-tetrahydronaphthalene-2-carboxylic acid], at human LAT1, the “Assay Data: degree of [14C]L-leucine uptake inhibition compared with BCH” value was “A”.
